We go through 2 compounds from patent US20160263116A1, “COMBINATIONS” (GlaxoSmithKline LLC, priority 2012, published 2016).

Experiment [1] has as its system Mero-14 mesothelioma cell line. Description: Anchorage-independent growth-death assay, Mero-14. It is filed as cell-based, human. As to conditions: single agent, 6 days; for EC50 / IC50: Homo sapiens, 144 h; for EC50 / IC50 / gIC100: anchorage-independent; for EC50: read-out: dEC50; for IC50: read-out: gIC50; for Ymin-T0: negative = net cell kill. As for the experimental part: (§1) Five human mesothelioma cell lines were used in these studies. Cells were grown in RPMI1640 media containing 10% FBS, 1% L-glutamine, 1% sodium pyruvate under standard cell culture conditions. The mesothelioma cell lines: Mero-14, Mero-82, NCI-H2052, NO36, and ONE58. The cellular response to Compound A or B was evaluated in an anchorage-independent cell growth assay that quantified the extent of cell growth inhibition and the net change in cell population. The assay was performed in black, clear bottom, untreated 384-well plates (Greiner #781096). It is important to use either non-tissue culture treated or Low Attachment plates to prevent cells from adhering to the plate during the assay. In brief, the assay was performed as described below. A 1% (weight/volume) stock of methylcellulose solution was prepared by dissolving 5 grams of methylcellulose (Sigma #M0512) in 495 mL of cell culture medium. […] Media can be substituted if the cells require different cell culture medium for growth. The dissolution often took a day with vigorous stirring at 4° C. maintaining sterile conditions. Cells were plated into a 384 well plate with assay conditions of 0.65% methylcellulose (final concentration) and 1000 cells per well in a final volume of 48 μL. […] The cells were mixed by inversion to distribute evenly, bubbles were dispersed and 48 μL was placed into the well with a positive displacement pipette. The plates were placed in a cell culture incubator containing 5% CO2 at 37° C. Serial dilution of compound in DMSO was done in a 384 well plate starting with μL of stock compound solution in the first column and 10 μL of DMSO in the other wells. Ten μL from the compound well was transferred into the DMSO containing well, mixed, and the serial dilution was continued with 10 μL transfers across the plate. Then, 4 μL of this DMSO diluted compound was added into wells of a new 384 well plate containing 105 μL of appropriate growth medium. This 'compound plate' was used to dose the assay plates containing cells in methylcellulose. For combination experiments, 20 μL of stock compound solution was a mixture of Compound A and Compound B at the designated ratio. For an example, for 1 to 1 ratio, 10 ul of Compound A at 40 mM and 10 ul of Compound B at 40 mM was mixed to generate ul of stock compound solution with both Compound A and Compound B at 20 mM concentration. […] Serial dilution and compound plate dilution was done as described above. Two μL from each well of the 'compound plate' was added to the individual wells of the 'cell plates' containing the 48 μL of cells in methylcellulose to initiate the assay. These assay plates were placed in the cell culture incubator for 6 days. One 'cell plate' was selected at random and was developed (see below) with Cell [NT] the time compound was added to the remaining cell plates and represents the time equal zero (T0) plate, i.e. it represents the number of cells at the time of compound addition. After 6 days the assay was stopped and the plates were developed by placing a black sticker on bottom of each plate to block light, 25 μL of CTG was added and then plates were incubate for 20 minutes at room temperature. The plates were scanned using a luminescence protocol on the EnVision (Perkin-Elmer). Results were expressed as a percent of the T0 value and plotted against the compound concentration. […] Positive values indicate net cell growth and negative values represent net cell kill. […] The results for the combination were analyzed by determination of Combination Index (CI) values using both mutually exclusive and mutually non-exclusive assumptions (12). The XC50 denotes that each parameter from the growth-death analysis was used, either gIC50 or gIC100 or […] values, to calculate the CI values. The A+B represents the XC50 value for the combination relative to the concentration of A and the B+A represents the XC50 value for the combination relative to the concentration of B in the combination.

Experiment [2] has as its system Mero-82 mesothelioma cell line. Description: Anchorage-independent growth-death assay, Mero-82. It is filed as cell-based, human. Particulars: single agent, 6 days; for EC50 / IC50: Homo sapiens, 144 h; for EC50 / IC50 / gIC100: anchorage-independent; for EC50: read-out: dEC50; for IC50: read-out: gIC50; for Ymin-T0: negative = net cell kill. Here is the method: as §1

The test system of experiment [3] is NCI-H2052 mesothelioma cell line. Description: Anchorage-independent growth-death assay, NCI-H2052. The experiment is classed as cell-based, human. Particulars: single agent, 6 days; for IC50: Homo sapiens, 144 h, read-out: gIC50; for Ymin-T0: negative = net cell kill. As for the experimental part: (§2) Five human mesothelioma cell lines were used in these studies. Cells were grown in RPMI1640 media containing 10% FBS, 1% L-glutamine, 1% sodium pyruvate under standard cell culture conditions. The mesothelioma cell lines: Mero-14, Mero-82, NCI-H2052, NO36, and ONE58. The cellular response to Compound A or B was evaluated in an anchorage-independent cell growth assay that quantified the extent of cell growth inhibition and the net change in cell population. The assay was performed in black, clear bottom, untreated 384-well plates (Greiner #781096). It is important to use either non-tissue culture treated or Low Attachment plates to prevent cells from adhering to the plate during the assay. In brief, the assay was performed as described below. A 1% (weight/volume) stock of methylcellulose solution was prepared by dissolving 5 grams of methylcellulose (Sigma #M0512) in 495 mL of cell culture medium. […] Media can be substituted if the cells require different cell culture medium for growth. The dissolution often took a day with vigorous stirring at 4° C. maintaining sterile conditions. Cells were plated into a 384 well plate with assay conditions of 0.65% methylcellulose (final concentration) and 1000 cells per well in a final volume of 48 μL. […] The cells were mixed by inversion to distribute evenly, bubbles were dispersed and 48 μL was placed into the well with a positive displacement pipette. The plates were placed in a cell culture incubator containing 5% CO2 at 37° C. Serial dilution of compound in DMSO was done in a 384 well plate starting with μL of stock compound solution in the first column and 10 μL of DMSO in the other wells. Ten μL from the compound well was transferred into the DMSO containing well, mixed, and the serial dilution was continued with 10 μL transfers across the plate. Then, 4 μL of this DMSO diluted compound was added into wells of a new 384 well plate containing 105 μL of appropriate growth medium. This 'compound plate' was used to dose the assay plates containing cells in methylcellulose. For combination experiments, 20 μL of stock compound solution was a mixture of Compound A and Compound B at the designated ratio. For an example, for 1 to 1 ratio, 10 ul of Compound A at 40 mM and 10 ul of Compound B at 40 mM was mixed to generate ul of stock compound solution with both Compound A and Compound B at 20 mM concentration. […] Serial dilution and compound plate dilution was done as described above. Two μL from each well of the 'compound plate' was added to the individual wells of the 'cell plates' containing the 48 μL of cells in methylcellulose to initiate the assay. These assay plates were placed in the cell culture incubator for 6 days. One 'cell plate' was selected at random and was developed (see below) with Cell [NT] the time compound was added to the remaining cell plates and represents the time equal zero (T0) plate, i.e. it represents the number of cells at the time of compound addition. […] The plates were scanned using a luminescence protocol on the EnVision (Perkin-Elmer). Results were expressed as a percent of the T0 value and plotted against the compound concentration. […] The results for the combination were analyzed by determination of Combination Index (CI) values using both mutually exclusive and mutually non-exclusive assumptions (12). […]

Experiment [4] concerns NO36 mesothelioma cell line. Description: Anchorage-independent growth-death assay, NO36. The experiment is classed as cell-based, human. As to conditions: single agent, 6 days; for IC50: Homo sapiens, 144 h, read-out: gIC50; for Ymin-T0: negative = net cell kill. As for the experimental part: as §2
Experiment [5] has as its system ONE58 mesothelioma cell line. The experiment in a line: Anchorage-independent growth-death assay, ONE58. It is filed as cell-based, human. Particulars: single agent, 6 days; for IC50: read-out: gIC50; for Ymin-T0: negative = net cell kill. Here is the method: as §1
Experiment [6] relates to five human mesothelioma cell lines. The experiment in a line: Anchorage-independent growth-death assay, summary over the cell line panel. The experiment is classed as cell-based. Particulars: 6 days of compound exposure, FIG. 4. Here is the method:
Five human mesothelioma cell lines were used in these studies. Cells were grown in RPMI1640 media containing 10% FBS, 1% L-glutamine, 1% sodium pyruvate under standard cell culture conditions. The mesothelioma cell lines: Mero-14, Mero-82, NCI-H2052, NO36, and ONE58.
The cellular response to Compound A or B was evaluated in an anchorage-independent cell growth assay that quantified the extent of cell growth inhibition and the net change in cell population. The assay was performed in black, clear bottom, untreated 384-well plates (Greiner #781096). It is important to use either non-tissue culture treated or Low Attachment plates to prevent cells from adhering to the plate during the assay. In brief, the assay was performed as described below.
A 1% (weight/volume) stock of methylcellulose solution was prepared by dissolving 5 grams of methylcellulose (Sigma #M0512) in 495 mL of cell culture medium. […]
After 6 days the assay was stopped and the plates were developed by placing a black sticker on bottom of each plate to block light, 25 μL of CTG was added and then plates were incubate for 20 minutes at room temperature. The plates were scanned using a luminescence protocol on the EnVision (Perkin-Elmer).
Results were expressed as a percent of the T0 value and plotted against the compound concentration. […]

The mark [7] stands for this setting: Homo sapiens, 144 h, anchorage-independent.

Each structure is given as a SMILES string.

On to `CONC(=O)c1ccccc1Nc1cc(Nc2cc(C)nn2C(C)C)ncc1Cl` [Compound A, 2-[(5-Chloro-2-{[3-methyl-1-(1-methylethyl)-1H-pyrazol-5-yl]amino}-4-pyridinyl)amino]-N-(methyloxy)benzamide], for which the EC50 in experiment [1] turned out to be 9.58 µM; in experiment [2], 6.9 µM. The IC50 was determined as 0.056 µM in experiment [1]; 0.016 µM in experiment [2]; 0.408 µM in experiment [3] (anchorage-independent); 17 µM in experiment [4] (anchorage-independent); 0.023 µM in experiment [5] (setting [7]). The gIC100 in experiment [1] is 3888 nM; in experiment [2] it was 983 nM; in experiment [3] (anchorage-independent), 5.73 µM; in experiment [5] (anchorage-independent), 6.135 µM. For the same compound, the Ymin-T0 in experiment [1] is given as −52%; in experiment [2] it was −53%; in experiment [3], −30%; in experiment [4], 134%; in experiment [5] it was −14%. Also, the “net change in cell population (Ymin-T0), in words” value in experiment [6] was “generally cytostatic”.
For `CC(=O)Nc1cccc(-n2c(=O)n(C3CC3)c(=O)c3c(Nc4ccc(I)cc4F)n(C)c(=O)c(C)c32)c1` [Compound B, N-{3-[3-cyclopropyl-5-(2-fluoro-4-iodo-phenylamino)-6,8-dimethy-2,4,7-trioxo-3,4,6,7-tetrahydro-2H-pyrido[4,3-d]pyrimidin-1-yl]phenyl}acetamide], the EC50 in experiment [1] was 0.071 µM; in experiment [2] it was 0.191 µM; in experiment [5] (Homo sapiens, 144 h, anchorage-independent, read-out: dEC50) it was 0.19 µM. The IC50 in experiment [1] was 0.0066 µM; in experiment [2] it was 0.01 µM; in experiment [3] (anchorage-independent), 0.016 µM; in experiment [4] (anchorage-independent), 0.134 µM; in experiment [5] (setting [7]), 0.0088 µM. Moreover, the gIC100 in experiment [1] stood at 26 nM; in experiment [2], 67 nM; in experiment [4] (anchorage-independent), 2345 nM; in experiment [5] (anchorage-independent), 0.045 µM. Further, the Ymin-T0 in experiment [1] is −78%; in experiment [2], −89%; in experiment [3] it was 31%; in experiment [4] it was −17%; in experiment [5], −92%. For the same compound, the “net change in cell population (Ymin-T0), in words” value in experiment [6] is reported as “cytotoxic in three of the five cell lines”.
